Source: article PMC4611054, “Quantitative time-resolved analysis reveals intricate, differential regulation of standard- and immuno-proteasomes” (eLife, 2015)
Residues, ends and D or L forms follow the SMILES beside them.

Tests used:
Format in all cases: biochemical
[1] = molecular target: T1, 20S mouse liver proteasome (Mus musculus, UniProt O55234+P70195+Q60692); experiment: fluorogenic peptide hydrolysis, initial velocities, ABC-SMC fit of Michaelis-Menten and substrate-inhibition models; conditions: TEAD buffer pH 7.2, 37 °C, authors state the models fit poorly
T1 construct: gene Psmb5; native 20S core particle purified from mouse liver; alpha7beta7beta7alpha7; with Proteasome subunit beta type-1; Proteasome subunit beta type-2; Proteasome subunit beta type-3; Proteasome subunit beta type-4; Proteasome subunit alpha type-1; Proteasome subunit alpha type-2; Proteasome subunit alpha type-3; Proteasome subunit alpha type-4; Proteasome subunit alpha type-5; Proteasome subunit alpha type-6; Proteasome subunit alpha type-7

[2] = molecular target: T2, human 20S s-proteasome (T2 proteasome) (Homo sapiens, UniProt P28072+P28074+Q99436); experiment: fluorogenic peptide hydrolysis time courses, Bayesian fit of compartment model; conditions: TEAD buffer pH 7.2, 37 °C, 20-640 μM substrate, model-inferred active site affinity
T2 construct: gene PSMB5; native 20S core particle purified from T2 cells; alpha7beta7beta7alpha7; with Proteasome subunit beta type-1; Proteasome subunit beta type-2; Proteasome subunit beta type-3; Proteasome subunit beta type-4; Proteasome subunit alpha type-1; Proteasome subunit alpha type-2; Proteasome subunit alpha type-3; Proteasome subunit alpha type-4; Proteasome subunit alpha type-5; Proteasome subunit alpha type-6; Proteasome subunit alpha type-7

[3] = molecular target: T1, 20S mouse liver proteasome; experiment: Bz-VGR-MCA hydrolysis with and without peptide; conditions: activator; allosteric non-catalytic modifier site; terminal groups of LLVY not told; pH 7.2, 37 °C

Structure (SMILES): Cc1cc(=O)oc2cc(NC(=O)[C@H](Cc3ccc(O)cc3)NC(=O)[C@@H](NC(=O)[C@H](CC(C)C)NC(=O)[C@H](CC(C)C)NC(=O)CCC(=O)O)C(C)C)ccc12 [Suc-LLVY-MCA] (HELM PEPTIDE1{[O=C(O)CCC(=O)[*:2]].L.L.V.Y.[Cc1cc(=O)oc2cc(N[*:1])ccc12]}$$$$V2.0)
- KM ([1]; site mainly beta5/beta5i): Scatterplot of the kinetic parameters vmax and KM from the inferred posterior parameter distributions
- KaS ([2]; site mainly beta5): we observe a higher active site affinity (KaS) with a lower Hill coefficient (na)

Structure (SMILES): Cc1cc(=O)oc2cc(NC(=O)[C@H](Cc3ccc(O)cc3)NC(=O)[C@@H](NC(=O)[C@H](CC(C)C)NC(=O)[C@H](CC(C)C)NC(=O)CCC(=O)O)C(C)C)ccc12 [LLVY peptide] (HELM PEPTIDE1{[O=C(O)CCC(=O)[*:2]].L.L.V.Y.[Cc1cc(=O)oc2cc(N[*:1])ccc12]}$$$$V2.0)
- Bz-VGR-MCA hydrolysis with and without peptide [3]: degradation rate of the substrate Bz-VGR-MCA increases in the presence of the peptide LLVY

Structure (SMILES): Cc1cc(=O)oc2cc(NC(=O)[C@H](CCC(=O)O)NC(=O)[C@H](CC(C)C)NC(=O)[C@H](CC(C)C)NC(=O)OCc3ccccc3)ccc12 [Z-LLE-MCA] (HELM PEPTIDE1{[O=C(OCc1ccccc1)[*:2]].L.L.E.[Cc1cc(=O)oc2cc(N[*:1])ccc12]}$$$$V2.0)
- KM ([1]; site mainly beta1/beta1i): The substrates Suc-LLVY-MCA, Bz-VGR-MCA and Z-LLE-MCA were hydrolysed by mouse proteasome
- KaS ([2]; site mainly beta1): for i-proteasomes we observe lower affinity to the active site (KaS)
